Experimental data: US7700584B2 (Hangzhou Minsheng Pharmaceuticals Co., Ltd., priority 2004, dated 2010)
Structures can show the parent of a compound that is named as a salt. Where two headings read alike, the source gives them in different places.

What was measured:
[1] = tested on: mouse grafted liver cancer H22; assay: Activity against mouse grafted liver cancer H22; format: in vivo, Kunming mice; conditions: for Tumor weight: X ± SD, n = 10; for Average weight (g)-after administration / Average weight(g)-after administration: mouse, in vivo
Method in brief: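 Male Kunming mice inoculated with liver cancer H22, 10 per group; compounds (10%, 0.4, 0.2 or 0.1 ml/mouse) injected from the day after inoculation on alternate days, 6 doses. Tumours excised the day after last dose; inhibition rate from mean tumour weight versus saline controls; repeated three times.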

[2] = tested on: eight selected tumor cell lines; assay: In vitro anti-tumor IC50, summary over the selected tumor cell lines; format: cell-based; conditions: Hela and U-937, also U-937 and HL-60 cell lines
Description: (1) Single cell suspension was seeded into 96-well plates (the cells was diluted in the PRMI-1640 minimum medium to 3×10^4 cells/ml, […] diluted cells/well). […] The experiments were performed in quadruplicate.
(2) The medium was removed. Solutions of the anti-tumor agents (50 compounds) were prepared in a freshly prepared medium at serial concentrations. […] of the solution was added into each well. Incubation was continued for 48 hours.
(3) 20 ug of 2 mg/ml MTT was added into each well, and incubated for 4 hours.
(4) The medium was removed from the well. The microplates were swiftly turned down to throw-off the medium. […] of DMSO was added into each well, and vortexed at room temperature for 10 minutes.
(5) OD value (λ=570 nm) was measured with an Enzyme-Linked Detector.
(6) The graph of cell vitality was plotted, and IC50 was calculated.

[3] = tested on: MCF-7 human mammary adenocarcinoma; assay: In vitro inhibition rate to tumor cells (MTT), MCF-7; format: cell-based; conditions: Homo sapiens, MCF7, 50 μg/ml, read-out: inhibition rate, Results (%) MCF-7
[4] = tested on: MDCK (dog kidney) cells; assay: Toxicity TC50 of the samples in MDCK cells (influenza screening); conditions: concentration of 50% toxicity
[5] = target: T1, HIV-1 integrase (HIV-1 IN) (Human immunodeficiency virus type 1 group M subtype B, UniProt P04585); assay: Screening for the activity against HIV-1 integrase; format: biochemical; conditions: initial concentration 100 μg/ml; read-out: IC50
T1 construct: a purified HIV-1 integrase was added into each well; purchased
Method in brief: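 Purified HIV-1 integrase with plate-bound 30-nt donor oligonucleotide and biotinylated 20-nt target oligonucleotide; samples tested at four 5-fold serial dilutions. Strand-transfer product detected by ELISA with biotin-labeled alkaline phosphatase, read as OD450.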

[6] = H22, first experiment, 20 mg/kg i.v., 6 doses
[7] = H22, first experiment, 40 mg/kg i.v., 6 doses
[8] = H22, second experiment, 20 mg/kg
[9] = H22, second experiment, 40 mg/kg
[10] = H22, third experiment, 10 mg/kg
[11] = H22, third experiment, 20 mg/kg
[12] = H22, third experiment, 40 mg/kg

## CC(C)C1CC23OC1(O)CC(=CN1CCNCC1)C2CCC3C (centres unmarked) [Compound 8, Curcumol piperazine hydrochloride]
[1]; H22, first experiment, 10 mg/kg i.v., 6 doses
  Tumor weight: 3.02 ± 0.33 g
[1]; [6]
  Inhibition rate (%): 4.0%
  Tumor weight: 2.9 ± 0.39 g
[1]; [7]
  Inhibition rate (%): 37.1%
  Tumor weight: 1.9 ± 0.36 g
[1]; H22, second experiment, 10 mg/kg
  Tumor weight: 3.10 ± 0.33 g
[1]; [8]
  Inhibition rate (%): 4.0%
  Tumor weight: 2.9 ± 0.39 g
[1]; [9]
  Inhibition rate (%): 36.1%
  Tumor weight: 1.93 ± 0.36 g
[1]; [10]
  Inhibition rate (%): 2.3%
  Tumor weight: 2.95 ± 0.33 g
[1]; [11]
  Inhibition rate (%): 7.3%
  Tumor weight: 2.8 ± 0.39 g
[1]; [12]
  Inhibition rate (%): 33.4%
  Tumor weight: 2.01 ± 0.36 g
[1]; 10 mg/kg
  Average weight (g)-after administration: 20.3 g
  Average weight(g)-after administration: 22.3 g
[1]; 20 mg/kg
  Average weight (g)-after administration: 20.9 g
  Average weight(g)-after administration: 21.9 g
[1]; 40 mg/kg
  Average weight (g)-after administration: 21.9 g
  Average weight(g)-after administration: 21.4 g
[1]; iv, 10 mg/kg
  Average weight(g)-after administration: 22.3 g
[1]; iv, 20 mg/kg
  Average weight(g)-after administration: 21.9 g
[1]; iv, 40 mg/kg
  Average weight(g)-after administration: 22.4 g
[1]; three different concentrations (40, 20, 10 mg/kg), i.v.
  inhibitory effect against mouse grafted liver cancer H22 (in words): some inhibitory effect only when the concentration reached 40 mg/kg
[2]
  activity to Hela, U-937 and HL-60 cell lines (in words): excellent activity
[3]; Table 1
  inhibition at 50 µg/mL: 89.1%
[3]; Table 2 (repeated screening)
  inhibition at 50 µg/mL: 85.2%
[3]; Table 3 (repeated screening)
  inhibition at 50 µg/mL: 86.2%
[4]
  TC50: 192.45 µg/mL
[5]
  inhibition at 100 µg/mL: < 50%
